One test has as its target T1, Adrenergic β2 (Homo sapiens, UniProt P07550).
T1 construct: Adherent H292 cells were removed from tissue culture flasks; endogenous in cells; host or cells: H292 cells
In words: Adrenergic β2 mediated cAMP production in H292 cells (AlphaScreen cAMP detection). Also noted: key to β2 Int Act: fraction of formoterol maximum activity (formoterol = 1). It counts as cell-based. Summed up: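 H292 cells pre-treated 10 min with rolipram (300 μM final), then given agonist for 60 min at room temperature in HBSS/10 mM HEPES pH 7.4, 1.6% DMSO final. Lysate cAMP measured by AlphaScreen against a cAMP standard curve. Four-parameter fit gives pEC50; intrinsic activity relative to formoterol maximum.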

The target in test [1] is T2, recombinant human α1D receptor (Homo sapiens, UniProt P25100).
T2 construct: expressed in transfected cells; host or cells: HEK293
T2 sequence (P25100 1-572): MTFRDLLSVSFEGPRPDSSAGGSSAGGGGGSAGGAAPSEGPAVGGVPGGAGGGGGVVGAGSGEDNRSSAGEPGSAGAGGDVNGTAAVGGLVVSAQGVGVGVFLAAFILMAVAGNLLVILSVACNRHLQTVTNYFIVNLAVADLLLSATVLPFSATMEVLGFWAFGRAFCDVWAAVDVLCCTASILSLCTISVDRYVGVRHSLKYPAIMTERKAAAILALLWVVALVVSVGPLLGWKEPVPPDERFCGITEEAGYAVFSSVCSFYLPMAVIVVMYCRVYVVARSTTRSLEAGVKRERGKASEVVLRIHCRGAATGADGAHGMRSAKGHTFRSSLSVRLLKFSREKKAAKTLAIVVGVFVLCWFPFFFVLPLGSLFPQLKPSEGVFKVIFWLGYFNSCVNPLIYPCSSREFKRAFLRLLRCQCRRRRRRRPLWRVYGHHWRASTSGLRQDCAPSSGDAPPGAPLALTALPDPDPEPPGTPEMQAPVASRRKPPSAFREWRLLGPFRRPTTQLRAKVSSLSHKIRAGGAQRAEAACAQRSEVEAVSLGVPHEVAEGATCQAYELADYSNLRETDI
In words: Adrenergic α1D [3H]-prazosin binding, HEK293 membranes. As to conditions: inhibition of [3H]-prazosin binding (0.3 nM), read-out: α1 bind pIC50 (converted). Here is the method: Membranes were prepared from human embryonic kidney 293 (HEK293) cells expressing recombinant human α1D receptor. These were diluted in Assay Buffer (50 mM HEPES, 1 mM EDTA, pH 7.4) to provide a final concentration of membranes that gave a clear window between maximum and minimum specific binding.
Assays were performed in U-bottomed 96-well polypropylene plates. 10 μL [^3H]-prazosin (0.3 nM final concentration) and 10 μL of test compound (10× final concentration) were added to each test well. For each assay plate 8 replicates were obtained for [^3H]-prazosin binding in the presence of 10 μL vehicle (10% (v/v) DMSO in Assay Buffer; defining maximum binding) or 10 μL BMY7378 (10 μM final concentration; defining non-specific binding (NSB)). Membranes were then added to achieve a final volume of 100 μL. The plates were incubated for 2 hours at room temperature and then filtered onto PEI coated GF/B filter plates, pre-soaked for 1 hour in Assay Buffer, using a 96-well plate Tomtec cell harvester. Five washes with 250 μL wash buffer (50 mM HEPES, 1 mM EDTA, pH 7.4) were performed at 4° C. to remove unbound radioactivity. […] The plates were sealed (TopSeal A) and filter-bound radioactivity was measured with a scintillation counter (TopCount, Packard BioScience) using a 3-minute counting protocol.
Total specific binding (B0) was determined by subtracting the mean NSB from the mean maximum binding. […]

Experimental findings from patent publication US20120142646A1, “Novel Compounds 621” (priority 2006, published 2012) are described below.

T1 sequence (P07550 whole entry): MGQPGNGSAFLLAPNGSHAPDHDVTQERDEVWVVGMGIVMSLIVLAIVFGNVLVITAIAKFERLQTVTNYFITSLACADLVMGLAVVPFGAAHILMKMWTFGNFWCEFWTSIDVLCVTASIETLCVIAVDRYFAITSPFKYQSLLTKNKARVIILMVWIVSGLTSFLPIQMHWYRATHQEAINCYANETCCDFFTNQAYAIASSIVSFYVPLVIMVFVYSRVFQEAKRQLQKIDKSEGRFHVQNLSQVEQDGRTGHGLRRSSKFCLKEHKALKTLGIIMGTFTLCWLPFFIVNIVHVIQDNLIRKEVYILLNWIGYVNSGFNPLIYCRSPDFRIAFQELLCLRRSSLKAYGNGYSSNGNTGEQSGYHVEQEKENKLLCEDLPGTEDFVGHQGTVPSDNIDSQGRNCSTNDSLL

On to `CCCCC[C@@H](C)N(CCNCCc1ccc(O)c2c1OCC(=O)N2)C(=O)CCNCCc1ccccc1` [Example 60, (R)—N-(Heptan-2-yl)-N-(2-(2-(5-hydroxy-3-oxo-3,4-dihydro-2H-benzo[b][1,4]oxazin-8-yl)ethylamino)ethyl)-3-(phenethylamino)propanamide bis(trifluoroacetate)], for which, on Adrenergic β2 (H292 cells, cAMP production, 60 minutes at room temperature, 300 μM rolipram, read-out: β2 pEC50 (converted)), the EC50 was 3.98 nM. Further, at Adrenergic β2 (Intrinsic Activity as a fraction relative to the maximum activity determined for formoterol), the “β2 Int Act” value was determined as 0.92. For the same compound, the IC50 in test [1] is 100 nM.
